Source: PubChem BioAssay AID248 (DTP/NCI, 2004)
Where “and” joins values, the source holds several entries; their conditions need not be identical. Identical values can stand only once. Toxic doses and inconclusive results are not listed. Cut-off read from the data, not from the text of the source: active = T/C of 150% or more; inactive = T/C below 125%.

Test system: L1210 leukemia ip in BDF1 mice, survival T/C
Experiment: NCI In Vivo Anticancer Drug Screen. Data for tumor model L1210 Leukemia (intraperitoneal) in B6D2F1 (BDF1) mice
Conditions: endpoint: mean survival time, higher = longer survival
In short: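 Ratio derived from survival: compound-dosed mice over vehicle-dosed mice, all bearing a transplantable tumor.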

[1] = dose: 100.0 mg/kg/injection, schedule: Q01DX009 (ip), vehicle: saline with Tween-80
[2] = dose: 200.0 mg/kg/injection, schedule: Q01DX009 (ip), vehicle: saline with Tween-80

Measured: T/C

Cc1cc(C)c(S(=O)(=O)c2ccc(F)cc2)c(C)c1
inactive: [1] 98 % of control | [2] 98 % of control | dose: 400.0 mg/kg/injection, schedule: Q01DX009 (ip), vehicle: saline with Tween-80 101 % of control

Nc1ccc(S(=O)(=O)CC(=O)N2CCOCC2)cc1
inactive: dose: 100.0 mg/kg/injection, schedule: Q04DX003 (ip), vehicle: saline with Tween-80 100 % of control | dose: 200.0 mg/kg/injection, schedule: Q04DX003 (ip), vehicle: saline with Tween-80 97 % of control | dose: 400.0 mg/kg/injection, schedule: Q04DX003 (ip), vehicle: saline with Tween-80 97 % of control

O=C1C=Cc2ccc3c4c(ccc1c24)C=CC3=O
inactive: dose: 100.0 mg/kg/injection, schedule: Q04DX003 (ip), vehicle: acetone 98 % of control | dose: 200.0 mg/kg/injection, schedule: Q04DX003 (ip), vehicle: acetone 91 % of control

C=CC1(C)CCC(=O)N1 (configuration not stated)
inactive: dose: 75.0 mg/kg/injection, schedule: Q04DX003 (ip), vehicle: other 104 % of control | dose: 150.0 mg/kg/injection, schedule: Q04DX003 (ip), vehicle: other 98 % of control | dose: 300.0 mg/kg/injection, schedule: Q04DX003 (ip), vehicle: other 98 % of control

C[CH2][Pb]([CH2]C)([CH2]C)[O]C(=O)C(Cl)(Cl)Cl
inactive: dose: 0.39 mg/kg/injection, schedule: Q01DX009 (ip), vehicle: other 101 % of control and 105 % of control | dose: 0.78 mg/kg/injection, schedule: Q01DX009 (ip), vehicle: other 102 % of control and 90 % of control | dose: 1.5 mg/kg/injection, schedule: Q01DX001 (ip), vehicle: other 113 % of control | dose: 1.5 mg/kg/injection, schedule: Q04DX002 (ip), vehicle: other 100 % of control | dose: 1.56 mg/kg/injection, schedule: Q01DX009 (ip), vehicle: other 93 % of control | dose: 3.0 mg/kg/injection, schedule: Q01DX001 (ip), vehicle: other 103 % of control | dose: 3.0 mg/kg/injection, schedule: Q04DX002 (ip), vehicle: other 100 % of control | dose: 6.0 mg/kg/injection, schedule: Q01DX001 (ip), vehicle: other 107 % of control | dose: 6.0 mg/kg/injection, schedule: Q04DX002 (ip), vehicle: other 109 % of control | dose: 6.25 mg/kg/injection, schedule: Q04DX003 (ip), vehicle: other 92 % of control | dose: 12.0 mg/kg/injection, schedule: Q04DX002 (ip), vehicle: other 101 % of control | dose: 12.5 mg/kg/injection, schedule: Q01DX001 (ip), vehicle: other 89 % of control | dose: 12.5 mg/kg/injection, schedule: Q04DX003 (ip), vehicle: other 97 % of control | dose: 25.0 mg/kg/injection, schedule: Q01DX001 (ip), vehicle: other 100 % of control | dose: 25.0 mg/kg/injection, schedule: Q04DX002 (ip), vehicle: carboxymethylcellulose (CMC) 94 % of control and 102 % of control | dose: 25.0 mg/kg/injection, schedule: Q04DX003 (ip), vehicle: other 87 % of control

CN1C(=O)c2ccccc2/C=C\c2ccccc21
inactive: dose: 100.0 mg/kg/injection, schedule: Q04DX002 (ip), vehicle: Klucel (hydroxypropylcellulose) (HPC) 103 % of control | dose: 200.0 mg/kg/injection, schedule: Q04DX002 (ip), vehicle: Klucel (hydroxypropylcellulose) (HPC) 92 % of control | dose: 400.0 mg/kg/injection, schedule: Q04DX002 (ip), vehicle: Klucel (hydroxypropylcellulose) (HPC) 87 % of control

C=CS(=O)(=O)c1ccc([N+](=O)[O-])cc1
inactive: dose: 6.25 mg/kg/injection, schedule: Q04DX002 (ip), vehicle: saline with Tween-80 92 % of control | dose: 12.5 mg/kg/injection, schedule: Q04DX002 (ip), vehicle: saline with Tween-80 101 % of control | dose: 25.0 mg/kg/injection, schedule: Q04DX002 (ip), vehicle: saline with Tween-80 94 % of control

Cc1ccc2c(c1C)C(=O)C(=O)N2
inactive: dose: 50.0 mg/kg/injection, schedule: Q01DX001 (ip), vehicle: saline 110 % of control | dose: 100.0 mg/kg/injection, schedule: Q01DX001 (ip), vehicle: saline 104 % of control | dose: 200.0 mg/kg/injection, schedule: Q01DX001 (ip), vehicle: saline 110 % of control | dose: 400.0 mg/kg/injection, schedule: Q01DX001 (ip), vehicle: saline 104 % of control

C1CN(CC2CO2)CCO1 (configuration not stated)
inactive: dose: 100.0 mg/kg/injection, schedule: Q01DX009 (ip), vehicle: saline 105 % of control | dose: 200.0 mg/kg/injection, schedule: Q01DX009 (ip), vehicle: saline 117 % of control | dose: 400.0 mg/kg/injection, schedule: Q01DX009 (ip), vehicle: saline 105 % of control

CCCCn1c(C)nc2c(NN=C(N)N)c3ccccc3c(N=NC(=N)N)c21
inactive: dose: 7.5 mg/kg/injection, schedule: Q01DX Z (oral), vehicle: carboxymethylcellulose (CMC) 102 % of control | dose: 15.0 mg/kg/injection, schedule: Q01DX Z (ip), vehicle: carboxymethylcellulose (CMC) 95 % of control | dose: 15.0 mg/kg/injection, schedule: Q01DX Z (oral), vehicle: carboxymethylcellulose (CMC) 104 % of control | dose: 30.0 mg/kg/injection, schedule: Q01DX Z (oral), vehicle: carboxymethylcellulose (CMC) 98 % of control | dose: 60.0 mg/kg/injection, schedule: Q01DX Z (oral), vehicle: carboxymethylcellulose (CMC) 98 % of control

O=[N+]([O-])c1ccc(OCCN2CCCC2)cc1
inactive: dose: 75.0 mg/kg/injection, schedule: Q01DX001 (ip), vehicle: saline 93 % of control | dose: 150.0 mg/kg/injection, schedule: Q01DX001 (ip), vehicle: saline 98 % of control

CC[N+](CC)(CC)CCCCCCCCCC[N+](CC)(CC)CC
inactive: dose: 0.19 mg/kg/injection, schedule: Q01DX009 (ip), vehicle: water 100 % of control | dose: 0.39 mg/kg/injection, schedule: Q01DX009 (ip), vehicle: water 95 % of control | dose: 0.78 mg/kg/injection, schedule: Q01DX009 (ip), vehicle: water 90 % of control | dose: 0.78 mg/kg/injection, schedule: Q04DX003 (ip), vehicle: saline 103 % of control

O=C(N/N=C/c1ccccc1)C(Oc1ccccc1)c1ccccc1 (configuration not stated)
inactive: dose: 100.0 mg/kg/injection, schedule: Q01DX001 (ip), vehicle: carboxymethylcellulose (CMC) 94 % of control | dose: 200.0 mg/kg/injection, schedule: Q01DX001 (ip), vehicle: carboxymethylcellulose (CMC) 94 % of control | dose: 400.0 mg/kg/injection, schedule: Q01DX001 (ip), vehicle: carboxymethylcellulose (CMC) 100 % of control

CN=C(NC)c1cccc(NC(=O)c2ccc(C(=O)Nc3cccc(C(=NC)NC)c3)c(N)c2)c1
inactive: dose: 0.5 mg/kg/injection, schedule: Q01DX015 (ip), vehicle: water 102 % of control | dose: 1.0 mg/kg/injection, schedule: Q01DX015 (ip), vehicle: water 102 % of control | dose: 2.0 mg/kg/injection, schedule: Q01DX015 (ip), vehicle: water 110 % of control | dose: 3.75 mg/kg/injection, schedule: Q01DX Z (ip), vehicle: water 91 % of control | dose: 4.0 mg/kg/injection, schedule: Q01DX015 (ip), vehicle: water 102 % of control | dose: 7.5 mg/kg/injection, schedule: Q01DX Z (ip), vehicle: water 87 % of control | dose: 15.0 mg/kg/injection, schedule: Q01DX Z (ip), vehicle: water 93 % of control

CCOC(C#CC1CCCC1)OCC
inactive: dose: 50.0 mg/kg/injection, schedule: Q01DX009 (ip), vehicle: saline with Tween-80 95 % of control | [1] 92 % of control | [2] 100 % of control

C[CH2][Pb]([CH2]C)([CH2]C)[O]C(=O)c1ccc(N)cc1
inactive: dose: 0.75 mg/kg/injection, schedule: Q01DX009 (ip), vehicle: Klucel (hydroxypropylcellulose) (HPC) 91 % of control | dose: 1.5 mg/kg/injection, schedule: Q01DX009 (ip), vehicle: Klucel (hydroxypropylcellulose) (HPC) 100 % of control | dose: 3.0 mg/kg/injection, schedule: Q01DX009 (ip), vehicle: Klucel (hydroxypropylcellulose) (HPC) 100 % of control | dose: 6.0 mg/kg/injection, schedule: Q01DX009 (ip), vehicle: Klucel (hydroxypropylcellulose) (HPC) 102 % of control | dose: 12.0 mg/kg/injection, schedule: Q01DX009 (ip), vehicle: Klucel (hydroxypropylcellulose) (HPC) 103 % of control | dose: 12.5 mg/kg/injection, schedule: Q04DX002 (ip), vehicle: Klucel (hydroxypropylcellulose) (HPC) 110 % of control | dose: 25.0 mg/kg/injection, schedule: Q04DX002 (ip), vehicle: Klucel (hydroxypropylcellulose) (HPC) 103 % of control

CCCC(C)CCCNCCOC(=O)c1cccc(N)c1 (configuration not stated)
inactive: dose: 75.0 mg/kg/injection, schedule: Q01DX001 (ip), vehicle: other 97 % of control | dose: 150.0 mg/kg/injection, schedule: Q01DX001 (ip), vehicle: other 94 % of control

O=C(C[P+](c1ccccc1)(c1ccccc1)c1ccccc1)Nc1ccccc1
inactive: dose: 10.0 mg/kg/injection, schedule: Q01DX009 (ip), vehicle: Klucel (hydroxypropylcellulose) (HPC) 100 % of control | dose: 20.0 mg/kg/injection, schedule: Q01DX009 (ip), vehicle: Klucel (hydroxypropylcellulose) (HPC) 108 % of control | dose: 40.0 mg/kg/injection, schedule: Q01DX009 (ip), vehicle: Klucel (hydroxypropylcellulose) (HPC) 100 % of control | dose: 75.0 mg/kg/injection, schedule: Q01DX009 (ip), vehicle: Klucel (hydroxypropylcellulose) (HPC) 107 % of control
